Source: PubChem BioAssay AID330 (DTP/NCI, 2004)
Several values for one entry are separate records, joined by “and”; a condition that tells them apart may be missing. Equal values may be shown once. Inconclusive results and toxic doses are left out. How the source made its calls: active means survival T/C of 150% or more; inactive means T/C below 125% in these data.

Test system: P388 leukemia ip, CD2F1 mice, survival T/C
Assay: NCI In Vivo Anticancer Drug Screen. Data for tumor model P388 Leukemia (intraperitoneal) in CD2F1 (CDF1) mice
Settings: endpoint: median survival time, higher = longer survival
In short: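 Mice carrying the transplanted tumor received test compound or vehicle. Survival was recorded in each group, and the value is the treated-group measurement divided by that of the vehicle-treated control group.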

[1] = dose: 12.5 mg/kg/injection, schedule: Q01DX009 (ip), vehicle: saline with Tween-80
[2] = dose: 25.0 mg/kg/injection, schedule: Q01DX009 (ip), vehicle: saline with Tween-80
[3] = dose: 50.0 mg/kg/injection, schedule: Q01DX009 (ip), vehicle: saline with Tween-80
[4] = dose: 60.0 mg/kg/injection, schedule: Q01DX005 (ip), vehicle: Klucel (hydroxypropylcellulose) (HPC)
[5] = dose: 120.0 mg/kg/injection, schedule: Q01DX005 (ip), vehicle: Klucel (hydroxypropylcellulose) (HPC)
[6] = dose: 6.25 mg/kg/injection, schedule: Q01DX009 (ip), vehicle: saline
[7] = dose: 12.5 mg/kg/injection, schedule: Q01DX009 (ip), vehicle: saline
[8] = dose: 25.0 mg/kg/injection, schedule: Q01DX009 (ip), vehicle: saline
[9] = dose: 50.0 mg/kg/injection, schedule: Q01DX009 (ip), vehicle: saline
[10] = dose: 50.0 mg/kg/injection, schedule: Q01DX005 (ip), vehicle: saline with Tween-80
[11] = dose: 100.0 mg/kg/injection, schedule: Q01DX005 (ip), vehicle: saline with Tween-80
[12] = dose: 200.0 mg/kg/injection, schedule: Q01DX005 (ip), vehicle: saline with Tween-80
[13] = dose: 100.0 mg/kg/injection, schedule: Q01DX009 (ip), vehicle: Klucel (hydroxypropylcellulose) (HPC)
[14] = dose: 25.0 mg/kg/injection, schedule: Q01DX005 (ip), vehicle: saline with Tween-80
[15] = dose: 60.0 mg/kg/injection, schedule: Q01DX005 (ip), vehicle: saline with Tween-80
[16] = dose: 120.0 mg/kg/injection, schedule: Q01DX005 (ip), vehicle: saline with Tween-80
[17] = dose: 240.0 mg/kg/injection, schedule: Q01DX005 (ip), vehicle: saline with Tween-80

Measured: T/C

O=[Se]([O][Sn]([O][Se](=O)c1ccccc1)([O][Se](=O)c1ccccc1)[O][Se](=O)c1ccccc1)c1ccccc1 (stereo unspecified)
inactive: [1] 98 % of control | [2] 103 % of control | [3] 110 % of control and 118 % of control

C/[N+]([O-])=N\Nc1ccccc1SCCSc1ccccc1N/N=[N+](\C)[O-]
inactive: [4] 91 % of control | [5] 89 % of control

COC(c1ccccc1)(c1ccccc1)c1ccc2ccc3ccccc3c2c1
inactive: dose: 50.0 mg/kg/injection, schedule: Q01DX005 (ip), vehicle: Klucel (hydroxypropylcellulose) (HPC) 91 % of control | dose: 100.0 mg/kg/injection, schedule: Q01DX005 (ip), vehicle: Klucel (hydroxypropylcellulose) (HPC) 96 % of control | dose: 200.0 mg/kg/injection, schedule: Q01DX005 (ip), vehicle: Klucel (hydroxypropylcellulose) (HPC) 95 % of control

c1ccc2c(SCCCCCCSc3c4ccccc4nc4ccccc34)c3ccccc3nc2c1
inactive: [4] 90 % of control | [5] 86 % of control

CN=C(N)N/N=C/c1ccc(-c2ccccc2)cc1
inactive: dose: 25.0 mg/kg/injection, schedule: Q04DX002 (ip), vehicle: saline 105 % of control | dose: 50.0 mg/kg/injection, schedule: Q04DX002 (ip), vehicle: saline 111 % of control

O=C(c1ccccc1)c1ccc[n+](Cc2c(Cl)cccc2Cl)c1
inactive: [6] 101 % of control and 98 % of control | [7] 102 % of control and 105 % of control | [8] 105 % of control and 111 % of control and 123 % of control | [9] 108 % of control and 114 % of control and 117 % of control

COC1=C(C2=C(OC)C(=O)c3cc4c(c(O)c3C2=O)C(=O)OC(C)C4)C(=O)c2c(cc3c(c2O)C(=O)OC(C)C3)C1=O (stereo unspecified)
inactive: [6] 100 % of control | [7] 98 % of control | [8] 103 % of control

O=C1CSC(C2CC=CCC2)N1c1nncs1 (stereo unspecified)
inactive: [10] 100 % of control | [11] 91 % of control | [12] 90 % of control

Cc1ccc2nc(NC(=S)NCCCCCCNC(=S)Nc3ccc4cc(C)ccc4n3)ccc2c1
inactive: dose: 50.0 mg/kg/injection, schedule: Q01DX009 (ip), vehicle: Klucel (hydroxypropylcellulose) (HPC) 93 % of control | [13] 93 % of control

COc1ccc(S(=O)(=O)NN=C(C(=O)O)C(=O)O)cc1
inactive: [14] 102 % of control | [10] 102 % of control | [11] 95 % of control | [12] 109 % of control

CCOP(=O)(Nc1ccc(OC)cc1)OCC
inactive: [9] 103 % of control | dose: 100.0 mg/kg/injection, schedule: Q01DX009 (ip), vehicle: saline 108 % of control | dose: 200.0 mg/kg/injection, schedule: Q01DX009 (ip), vehicle: saline 111 % of control

CC(=O)Nc1ccccc1C(C)=O
inactive: [3] 91 % of control | dose: 50.0 mg/kg/injection, schedule: Q04DX003 (ip), vehicle: saline with Tween-80 95 % of control | dose: 100.0 mg/kg/injection, schedule: Q01DX009 (ip), vehicle: saline with Tween-80 95 % of control | dose: 100.0 mg/kg/injection, schedule: Q04DX003 (ip), vehicle: saline with Tween-80 100 % of control | dose: 200.0 mg/kg/injection, schedule: Q01DX009 (ip), vehicle: saline with Tween-80 100 % of control | dose: 200.0 mg/kg/injection, schedule: Q04DX003 (ip), vehicle: saline with Tween-80 100 % of control

O=C(OCCc1c[nH]c2ccccc12)N(CCCl)CCCl
inactive: dose: 1.56 mg/kg/injection, schedule: Q01DX009 (ip), vehicle: distilled water + Tween-80 101 % of control | dose: 3.12 mg/kg/injection, schedule: Q01DX009 (ip), vehicle: distilled water + Tween-80 103 % of control | dose: 6.25 mg/kg/injection, schedule: Q01DX009 (ip), vehicle: distilled water + Tween-80 105 % of control | dose: 12.5 mg/kg/injection, schedule: Q01DX009 (ip), vehicle: distilled water + Tween-80 109 % of control | dose: 25.0 mg/kg/injection, schedule: Q01DX009 (ip), vehicle: distilled water + Tween-80 111 % of control

CC1=C2CCC(O)C2(C)CCC(=O)C1 (stereo unspecified)
inactive: dose: 100.0 mg/kg/injection, schedule: Q04DX003 (ip), vehicle: Klucel (hydroxypropylcellulose) (HPC) 105 % of control | dose: 200.0 mg/kg/injection, schedule: Q04DX003 (ip), vehicle: Klucel (hydroxypropylcellulose) (HPC) 99 % of control

COC(=O)C1CCC(=O)N1Cc1csc(-c2ccccc2)n1 (stereo unspecified)
inactive: [15] 106 % of control | [16] 100 % of control | [17] 106 % of control

CCn1c2ccc(C(=O)CCCN(C)C)cc2c2cc(C(=O)CCCN(C)C)ccc21
inactive: [7] 118 % of control and 122 % of control | [8] 108 % of control and 116 % of control

COc1ccc2c3c1OC1C(O)C=CC4C(C2)N(C)CCC341 (stereo unspecified)
inactive: dose: 3.12 mg/kg/injection, schedule: Q01DX009 (ip), vehicle: saline with Tween-80 102 % of control | dose: 6.25 mg/kg/injection, schedule: Q01DX009 (ip), vehicle: saline with Tween-80 105 % of control | [1] 112 % of control | [2] 114 % of control

Cc1ccc2c(c1)C(=O)CC=C(C(=O)O)N2
inactive: [13] 98 % of control | dose: 200.0 mg/kg/injection, schedule: Q01DX009 (ip), vehicle: Klucel (hydroxypropylcellulose) (HPC) 104 % of control | dose: 400.0 mg/kg/injection, schedule: Q01DX009 (ip), vehicle: Klucel (hydroxypropylcellulose) (HPC) 111 % of control | dose: 600.0 mg/kg/injection, schedule: Q01DX009 (ip), vehicle: Klucel (hydroxypropylcellulose) (HPC) 89 % of control

Cc1ccccc1C1N=C2Oc3ccccc3C=C2C(=O)N1 (stereo unspecified)
inactive: dose: 12.5 mg/kg/injection, schedule: Q01DX005 (ip), vehicle: Klucel (hydroxypropylcellulose) (HPC) 100 % of control and 102 % of control and 98 % of control | dose: 25.0 mg/kg/injection, schedule: Q01DX005 (ip), vehicle: Klucel (hydroxypropylcellulose) (HPC) 93 % of control

O=C1CN(Cc2ccc(Cl)cc2)CC(=O)N2CCCN12
inactive: dose: 12.5 mg/kg/injection, schedule: Q01DX005 (ip), vehicle: saline with Tween-80 96 % of control | [14] 100 % of control | [10] 100 % of control

O=C(N/N=C/c1ccc(O)c(O)c1)c1ccccc1
inactive: [10] 109 % of control | [11] 118 % of control | [12] 119 % of control

O=c1c2ccccc2sc2c([N+](=O)[O-])ccc(NCCCC3CCCN4CCCCC34)c12 (stereo unspecified)
inactive: dose: 31.9 mg/kg/injection, schedule: Q01DX005 (ip), vehicle: saline with Tween-80 100 % of control | dose: 63.8 mg/kg/injection, schedule: Q01DX005 (ip), vehicle: saline with Tween-80 102 % of control | dose: 127.5 mg/kg/injection, schedule: Q01DX005 (ip), vehicle: saline with Tween-80 110 % of control

CCCCSc1n[nH]c(C2CCC(=O)N2Cc2ccccc2)n1 (stereo unspecified)
inactive: [15] 100 % of control | [16] 93 % of control | [17] 91 % of control

N#CC1N(C(=O)Oc2ccccc2)c2ccccc2N1C(=O)Oc1ccccc1
inactive: dose: 7.5 mg/kg/injection, schedule: Q01DX005 (ip), vehicle: saline with Tween-80 92 % of control | dose: 15.0 mg/kg/injection, schedule: Q01DX005 (ip), vehicle: saline with Tween-80 91 % of control

CN1C(=O)N(C)C2(C(=O)c3cccc4cccc2c34)C1=O (stereo unspecified)
inactive: dose: 50.0 mg/kg/injection, schedule: Q01DX009 (ip), vehicle: distilled water + alcohol 100 % of control | dose: 100.0 mg/kg/injection, schedule: Q01DX009 (ip), vehicle: distilled water + alcohol 94 % of control | dose: 200.0 mg/kg/injection, schedule: Q01DX009 (ip), vehicle: distilled water + alcohol 100 % of control
